Results as given in US20240255419A1, “MOLECULAR PROBES FOR MAPPING BIOLOGICAL ACTIVITY” (Trustees of Boston University, priority 2023, published 2024).

Assays:
[1] = tested on: SJSA-1 cells; assay: induction of apoptosis for activating caspase-3/7; format: cell-based
From the text: Other than phosphatase, we profiled caspase-3/7 activity in live cancer cells.

[2] = tested on: alkaline phosphatase (ALP); conditions: standard substrate, identical conditions
[3] = tested on: ATP synthetase; assay: cellular uptake mechanism, NBD fluorescence of NBD-Phos-CN(S); format: cell-based; conditions: 5 μM inhibitor, cells with NBD-Phos-CN(S)
From the text: Considering the high sensitivity and resistance to photobleaching, we conducted real-time monitoring of dephosphorylation reaction in cells by MIP imaging as Phos-CN(S) is introduced to the cells. […] The Nanoparticles formed by the amphiphilic nitrile chameleons may escape from endosomes through endosomal membrane disruption or perforation. The variation in phosphatase activity patterns at different time points is attributed to the dynamic movements of cellular structures within live cells. As previously discussed, the nanofilaments intertwine with cellular structures, causing the nanofilaments to move along with these structures. Furthermore, we utilized NBD-Phos-CN(S) to study the cellular uptake mechanism of nitrile chameleons because NBD fluorescence cannot distinguish between substrate and product.

[4] = target: T1, caspase-3 (active) (Homo sapiens, UniProt P42574); assay: enzymatic conversion efficiency by caspase-3 (active), time-course of product formation; format: biochemical; conditions: standard substrate, identical conditions
T1 sequence (P42574 29-175 limits assumed): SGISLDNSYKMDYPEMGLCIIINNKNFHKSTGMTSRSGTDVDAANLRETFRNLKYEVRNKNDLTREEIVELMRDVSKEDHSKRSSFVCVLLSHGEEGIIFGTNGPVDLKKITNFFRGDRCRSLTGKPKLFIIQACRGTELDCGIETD
T1 sequence (P42574 176-277 limits assumed): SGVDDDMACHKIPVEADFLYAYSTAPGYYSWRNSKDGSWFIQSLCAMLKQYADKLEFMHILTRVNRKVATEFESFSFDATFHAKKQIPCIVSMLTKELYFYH

COc1cccc2c1C(=O)c1c(O)c3c(c(O)c1C2=O)C[C@@](O)(C(=O)CO)C[C@@H]3O[C@H]1C[C@H](N)[C@H](O)[C@H](C)O1 [Doxorubicin]
apoptosis induction [1]: efficiently induces apoptosis

O=[N+]([O-])c1ccc(OP(=O)(O)O)cc1 [P-nitrophenyl phosphate]
initial speed (v0) [2]: 0.53 nmol/min

CC[C@H]1/C=C/C=C/C[C@@H](C)[C@H](O)[C@@](C)(O)C(=O)[C@@H](C)[C@H](O)[C@@H](C)C(=O)[C@@H](C)[C@H](O)[C@@H](C)/C=C/C(=O)O[C@@H]2[C@H](C)[C@H](CC1)O[C@]1(CC[C@H](C)[C@H](C[C@@H](C)O)O1)[C@H]2C [oligomycin]
NBD fluorescence inside the cells [3]: significantly reduced

Ac-DEVD-pNA
initial speed (v0) [4]: 0.33 nmol/min
